How the values were obtained:
Type in all cases: cell-based
[1] = tested on: normal primary differentiated human airway epithelia; assay: Flow cytometric cell cycle analysis (7-AAD) of BrdU+ cells from wounded normal epithelia; conditions: with pulse DEX, +48 h
Description: (§1) On arrival, the in vitro epithelia were washed with phosphate buffered saline (PBS) and the basal medium was replaced with proprietary defined medium supplied by the manufacturer. Cells were equilibrated at 37° C. and 5% CO2 for 16 h followed by medium replacement with identical proprietary medium lacking glucocorticoids and epidermal growth factor (EGF). This condition was maintained for an additional 22 h. […]
(§2) An in vitro epithelial injury model that allows for the study of epithelial repair processes in the lung was adapted for use in this study. […] In some experiments, wounds were imaged daily (i.e. 0, +24, +48 h) using a 16× phase contrast objective lens and wound area was measured in triplicate by a single operator blinded to the culture conditions using ImageJ Software (Rasband. ImageJ. Bethesda, Md., USA: U. S. National Institutes of Health; 1997-2009). […]
Epithelia were washed once with PBS and harvested at +48 h (FIG. 1) for analysis by flow cytometry. […] Data were analyzed by means of the cell cycle analysis feature of FlowJo 7.6 (Tree Star, Inc., Ashland, Oreg.) using a Watson (Pragmatic) model with equal coefficients of variation for the G1/G0 and G2/M peaks

[2] = tested on: normal primary differentiated human airway epithelia; assay: Mechanical scrape-wound healing (wound area, ImageJ), normal epithelia; conditions: 20 nM 2 h pulses every 24 h
Description: (§3) On arrival, the in vitro epithelia were washed with phosphate buffered saline (PBS) and the basal medium was replaced with proprietary defined medium supplied by the manufacturer. Cells were equilibrated at 37° C. and 5% CO2 for 16 h followed by medium replacement with identical proprietary medium lacking glucocorticoids and epidermal growth factor (EGF). This condition was maintained for an additional 22 h. Upon completion (i.e. −26 h on the experimental timeline shown in FIG. 1, intermittent glucocorticoid exposures began: Dexamethasone (DEX) (20 nM) or PBS vehicle (VEH) was added to the apical and basolateral epithelial surfaces for 2 h. At −24 h, the medium was replaced with glucocorticoid- and EGF-free medium. This two-hour DEX/VEH pulse was repeated every 24 h (i.e. at −2, +22, and +46 h) thereafter until cell harvest at +48 h.
as §2

[3] = tested on: asthmatic primary differentiated human airway epithelia; assay: Mechanical scrape-wound healing (wound area, ImageJ), asthmatic epithelia; conditions: 20 nM 2 h pulses every 24 h
Description: as §3, §2

[4] = tested on: asthmatic primary differentiated human airway epithelia; assay: Flow cytometric cell cycle analysis (7-AAD) of BrdU+ cells from wounded asthmatic epithelia; conditions: Example 2, wounded asthmatic epithelia, 2 h pulses at -26, -2, +22, +46 h
Description: as §3
An in vitro epithelial injury model that allows for the study of epithelial repair processes in the lung was adapted for use in this study. Briefly, at 0 h on the timeline in FIG. 1, epithelia were scraped in two perpendicular lines with a p1000 pipette tip and placed in bromodeoxyuridine (BrdU)-containing (10 μM) medium. BrdU-containing medium was changed at +24 h following the DEX/VEH pulse mentioned previously. Epithelia were incubated at 37° C. and 5% CO2 until +48 h. In some experiments, wounds were imaged daily (i.e. 0, +24, +48 h) using a 16× phase contrast objective lens and wound area was measured in triplicate by a single operator blinded to the culture conditions using ImageJ Software (Rasband. ImageJ. Bethesda, Md., USA: U. S. National Institutes of Health; 1997-2009). Contrast was enhanced equally in all images to improve wound visualization.
Epithelia were washed once with PBS and harvested at +48 h (FIG. 1) for analysis by flow cytometry. A single cell suspension was achieved by exposure for 5 minutes with trypsin-ethylenediaminetetraacetic acid (EDTA) solution (#T3924; Sigma-Aldrich, St. Louis, Mo.) followed by filtration through a 40 μm strainer. Cells were simultaneously labeled with the following according to the manufacturers' protocols: 1) Carboxyfluorescein FLICA Apoptosis Poly-Caspase Detection Kit (Immunochemistry Technologies, LLC, Bloomington, Minn.) and 2) APC BrdU Flow Kit containing 7-AAD (amino-actinomycin-D) (BD Biosciences, San Jose, Calif.). Flow cytometry data were generated on a FACSCalibur™ System (BD Biosciences). Samples were gated to study 7-AAD content in BrdU^+FLICA^− cells. Data were analyzed by means of the cell cycle analysis feature of FlowJo 7.6 (Tree Star, Inc., Ashland, Oreg.) using a Watson (Pragmatic) model with equal coefficients of variation for the G1/G0 and G2/M peaks
Human fully-differentiated (air-liquid interface) normal (n=3) and asthmatic (n=3) primary airway epithelia, lacking inflammatory cells, were cultured in glucocorticoid-free medium beginning at −48 h. The cells were pulsed with mitotic cell cycle synchrony-inducing (i.e. dexamethasone, simvastatin) compounds or vehicle for 2 h at −26, −2, +22, and +46 h. Cultures were mechanically scrape-wounded at 0 h and thereafter exposed continuously to bromodeoxyuridine (BrdU) to identify mitotically active cells.

[5] = tested on: asthmatic primary differentiated human airway (bronchial) epithelia; assay: BrdU flow cytometry of mitotically active cells after scrape-wounding, asthmatic epithelia; conditions: wounded asthmatic epithelia, 20 nM 2 h pulses every 24 h, harvest +48 h, mean±SEM
Text: Normal (n=3) and asthmatic (n=6) primary differentiated human airway (i.e. bronchial) epithelia grown in 12-well plates on collagen-coated Transwell membrane inserts at an air-liquid interface were obtained commercially (#AIR-606 and #AIR-606-Asthma; MatTek Corporation, Ashland, Mass.). Donors underwent bronchoscopic brushing to acquire epithelial cells. Descriptive donor information provided by MatTek Corporation for the individuals from whom cells were obtained is shown in Table 1.
as §1, §2

SMILES: C[C@@H]1C[C@H]2[C@@H]3CCC4=CC(=O)C=C[C@]4(C)[C@@]3(F)[C@@H](O)C[C@]2(C)[C@@]1(O)C(=O)CO [DEX, Dexamethasone]
- BrdU+ cells in G1/G0 [1]: > 70%
- wound area decrease from 0 to +48 h [2]: 86.8±5.4%
- wound area decrease from 0 to +48 h [3]: 75.7±9%
- BrdU+ cells in G1/G0 [4]: 72±5%
- BrdU+ cells in G2/M [4]: 20±4%
- BrdU+ cells in S [4]: 8±2%
- BrdU+ cells, % of total cells [5]: 0.55±0.13%

SMILES: CCC(C)(C)C(=O)O[C@H]1C[C@@H](C)C=C2C=C[C@H](C)[C@H](CC[C@@H]3C[C@@H](O)CC(=O)O3)[C@H]21 [simvastatin]
- BrdU+ cells in G1/G0 [4]: 75±6%
- BrdU+ cells in G2/M [4]: 14±3%
- BrdU+ cells in S [4]: 11±4%
